Values joined by “and” are separate entries in the source; they are usually repeats but may differ in a detail not shown here. Equal values may be shown once.
Test system: Rattus norvegicus
Conditions: inhalation; for NEL / LEL: Crl:CD(SD) BR
[1] = chronic, duration: 2 years, F, Crl:CD BR, Developmental: Whole Body: Survival + General Toxicity: Whole Body: Body Weight Change + Hepatic: Liver: Liver Histopathology + Hepatic: …
[2] = chronic, duration: 2 years, F, Blood: Eosinophils + Blood: Monocytes
[3] = chronic, duration: 2 years, F, Blood: Sorbitol Dehydrogenase (SDH), Blood
[4] = chronic, duration: 2 years, F, Liver: Liver Weight, Absolute
[5] = chronic, duration: 2 years, F, Mammary Gland: Mammary Gland Fibroadenoma
[6] = chronic, duration: 2 years, M, Crl:CD BR, Developmental: Whole Body: Survival + General Toxicity: Whole Body: Body Weight Change + Hepatic: Liver: Focal Liver Necrosis + Hepatic: …
[7] = chronic, duration: 2 years, M, Blood: Monocytes + Liver: Aspartate Aminotransferase (AST), Blood
[8] = chronic, duration: 2 years, M, Heart: Heart Weight, Absolute + Liver: Focal Liver Necrosis + Lung: Cholesterol Cleft/Granuloma in Lung
[9] = chronic, duration: 2 years, M, Kidney: Renal Tubular Pigment + Whole Body: Body Weight Change + Whole Body: Terminal Body Weight, Absolute
[10] = chronic, duration: 2 years, M, Kidney: Urobilinogen, Urine
[11] = reproduction developmental, duration: 9 days, F, Crl: CD BR, generation: P0, P0: General Toxicity: Whole Body: Maternal Body Weight Change + P0: General Toxicity: Whole Body: Mortality + P0: Nervous: Whole Body: …
[12] = reproduction developmental, duration: 9 days, F, Crl:CD BR, generation: P0, P0: Developmental: Uterus: Implantation + P0: Developmental: Uterus: Post-Implantation Loss + P0: Developmental: Uterus: Pre-Implantation …
[13] = reproduction developmental, duration: 9 days, F, Crl:CD BR, generation: P0, P0: Developmental: Uterus: Post-Implantation Loss + P0: Developmental: Uterus: Resorptions, Mean/Litter + P0: General Toxicity: Whole Body: …

FC(Cl)C(F)(F)F (centres undefined) [2-Chloro-1,1,1,2-tetrafluoroethane]
LOAEL (chronic, duration: 2 years, F, Crl:CD BR, Cardiovascular: Aorta: Aorta Histopathology + Cardiovascular: Heart: Heart Histopathology + Cardiovascular: Heart: Heart Weight, Absolute + …): 279000 mg/m3
LOAEL [1]: 279000 mg/m3
NOAEL [1]: 55800 mg/m3
LOAEL (chronic, duration: 2 years, F, Crl:CD BR, Hepatic: Blood: Globulin (G) + Hepatic: Liver: Alanine Aminotransferase (ALT) + Hepatic: Liver: Albumin (A) + Hepatic: Liver: Alkaline …): 11200 mg/m3
NEL (chronic, duration: 2 years, F, Adrenal: Adrenal Gland Histopathology + Adrenal: Adrenal Gland Weight, Absolute + Aorta: Aorta Histopathology + Brain: Brain Histopathology…): 279000 mg/m3
NEL (chronic, duration: 2 years, F, Blood: Abnormal Lymphocytes + Blood: Bands + Blood: Basophils + Blood: Calcium (CA), Blood + Blood: Globulin (G), Blood + Blood: Glucose (…): 279000 mg/m3
LEL (chronic, duration: 2 years, F, Blood: Chloride (CL), Blood + Kidney: Creatine Kinase (CK), Blood + Kidney: Creatinine (CREAT), Blood): 11200 mg/m3
LEL [2]: 55800 mg/m3
NEL [2]: 11200 mg/m3
LEL [3]: 279000 mg/m3
NEL [3]: 55800 mg/m3
LEL [4]: 55800 mg/m3
NEL [4]: 11200 mg/m3
LEL [5]: 279000 mg/m3
NEL [5]: 55800 mg/m3
LEL (chronic, duration: 2 years, F, Whole Body: Body Weight Change + Whole Body: Terminal Body Weight, Absolute): 11200 mg/m3
LOAEL (chronic, duration: 2 years, M, Crl:CD BR, Cardiovascular: Aorta: Aorta Histopathology + Cardiovascular: Heart: Heart Histopathology + Cardiovascular: Heart: Heart Weight, Absolute + …): 279000 mg/m3
LOAEL [6]: 279000 mg/m3
NOAEL [6]: 55800 mg/m3
LOAEL (chronic, duration: 2 years, M, Crl:CD BR, Hepatic: Blood: Globulin (G) + Hepatic: Liver: Alanine Aminotransferase (ALT) + Hepatic: Liver: Albumin (A) + Hepatic: Liver: Alkaline …): 11200 mg/m3
NEL (chronic, duration: 2 years, M, Adrenal: Adrenal Gland Histopathology + Adrenal: Adrenal Gland Weight, Absolute + Aorta: Aorta Histopathology + Brain: Brain Histopathology…): 279000 mg/m3
NEL (chronic, duration: 2 years, M, Blood: Abnormal Lymphocytes + Blood: Bands + Blood: Basophils + Blood: Calcium (CA), Blood + Blood: Eosinophils + Blood: Globulin (G), Blood…): 279000 mg/m3
LEL (chronic, duration: 2 years, M, Blood: Chloride (CL), Blood + Liver: Alanine Aminotransferase (ALT), Blood): 11200 mg/m3
LEL [7]: 55800 mg/m3
NEL [7]: 11200 mg/m3
LEL [8]: 279000 mg/m3
NEL [8]: 55800 mg/m3
LEL [9]: 55800 mg/m3
NEL [9]: 11200 mg/m3
LEL [10]: 279000 mg/m3
NEL [10]: 55800 mg/m3
LEL (chronic, duration: 2 years, M, Liver: Liver Weight, Absolute + Spleen: Spleen Weight, Absolute): 11200 mg/m3
LOAEL (developmental, duration: 9 days, M/F, Crl: CD BR, generation: F1, F1: Developmental: Uterus: Dead Fetuses + F1: Developmental: Uterus: Fetuses, Live + F1: General Toxicity: Whole Body: Body Weight, Fetal): 279000 mg/m3
NOAEL (developmental, duration: 9 days, M/F, Crl:CD BR, generation: F1, F1: Developmental: Head: Head Abnormalities + F1: Developmental: Whole Body: External Abnormalities + F1: Developmental: Whole Body: Live …): 27900 mg/m3 and 83700 mg/m3
NEL (developmental, duration: 9 days, M/F, generation: F1, F1: Head: Head Abnormalities + F1: Whole Body: External Abnormalities + F1: Whole Body: Live Pups Born + F1: Whole Body: Skeletal …): 279000 mg/m3
LEL (developmental, duration: 9 days, M/F, generation: F1, F1: Whole Body: Pup Weight Relative to Litter): 27900 mg/m3
LOAEL (reproduction developmental, duration: 9 days, F, Crl: CD BR, generation: P0, P0: Developmental: Uterus: Implantation + P0: Developmental: Uterus: Resorptions, Early + P0: Developmental: Uterus: Resorptions, Total + P0…): 279000 mg/m3
LOAEL [11]: 279000 mg/m3
NOAEL [11]: 55800 mg/m3
LOAEL [12]: 83700 mg/m3
NOAEL [12]: 27900 mg/m3
NOAEL (reproduction developmental, duration: 9 days, F, Crl:CD BR, generation: P0, P0: Developmental: Uterus: Implantation + P0: Developmental: Uterus: Pre-Implantation Loss + P0: Reproductive: Ovary: Corpora Lutea): 279000 mg/m3
LOAEL [13]: 279000 mg/m3
NOAEL [13]: 83700 mg/m3

From EPA's ToxValDB 9.5
